In ChEMBL document CHEMBL1201862, “PubChem BioAssay data set” (2004):
Values joined by “and” are separate entries in the source; they are usually repeats but may differ in a detail not shown here. Equal entries are not always repeated. Active and inactive are the calls of the source.

What was measured:
[1] = Shn3 3'UTR reporter inhibitors, dose response, cell-based, Clone20 osteoblasts, firefly luciferase, cherry-picked (AID 624132); assay type: functional;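 further: firefly luciferase luminescence from reporter carrying the Shn3 3'UTR in osteoblasts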
[2] = HepG2 cell cytotoxicity, dose response, cytotoxicity control for Shn3 inhibitor project, CellTiter-Glo, cherry-picked (AID 624134); assay type: functional, cell-based
[3] = control 3'UTR Renilla luciferase suppression, dose response, counter-screen for Shn3 inhibitor project, cell-based, Clone20-Shn3RL, cherry-picked (AID 624133); assay type: functional
[4] = target: Cytochrome P450 2D6 (Homo sapiens, UniProt P10635)
Sequence of Cytochrome P450 2D6 (P10635 whole entry): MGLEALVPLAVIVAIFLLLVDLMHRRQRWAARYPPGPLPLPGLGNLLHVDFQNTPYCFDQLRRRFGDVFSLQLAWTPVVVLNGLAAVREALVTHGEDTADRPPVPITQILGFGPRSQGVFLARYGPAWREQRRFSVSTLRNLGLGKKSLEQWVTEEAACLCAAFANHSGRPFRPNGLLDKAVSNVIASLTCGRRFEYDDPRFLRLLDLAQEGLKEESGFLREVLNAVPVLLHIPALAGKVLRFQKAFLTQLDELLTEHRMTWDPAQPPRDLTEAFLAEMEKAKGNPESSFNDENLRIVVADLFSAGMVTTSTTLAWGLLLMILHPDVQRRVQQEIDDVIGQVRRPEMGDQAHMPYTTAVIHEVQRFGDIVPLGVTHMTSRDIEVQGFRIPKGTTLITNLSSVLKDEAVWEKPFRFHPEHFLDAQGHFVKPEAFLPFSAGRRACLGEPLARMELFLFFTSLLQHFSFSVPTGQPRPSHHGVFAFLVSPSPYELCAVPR

[5] = target: Cytochrome P450 3A4 (Homo sapiens, UniProt P08684);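 further: CYP3A4 tested as one member of a cytochrome P450 panel screen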
Sequence of Cytochrome P450 3A4 (P08684 whole entry): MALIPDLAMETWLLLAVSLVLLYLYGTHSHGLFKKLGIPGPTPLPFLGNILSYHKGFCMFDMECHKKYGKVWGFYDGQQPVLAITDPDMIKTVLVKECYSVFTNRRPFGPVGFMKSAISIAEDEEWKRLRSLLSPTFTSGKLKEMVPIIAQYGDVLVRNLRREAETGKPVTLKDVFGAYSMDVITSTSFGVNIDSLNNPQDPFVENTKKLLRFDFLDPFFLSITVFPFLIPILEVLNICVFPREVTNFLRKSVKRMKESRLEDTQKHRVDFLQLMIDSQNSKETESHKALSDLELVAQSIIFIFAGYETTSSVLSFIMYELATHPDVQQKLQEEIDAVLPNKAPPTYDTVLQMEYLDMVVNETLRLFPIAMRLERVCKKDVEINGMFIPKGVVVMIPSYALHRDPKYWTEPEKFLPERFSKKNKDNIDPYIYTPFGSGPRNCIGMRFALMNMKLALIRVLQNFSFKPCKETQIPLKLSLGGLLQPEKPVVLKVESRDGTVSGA

[6] = target: Cytochrome P450 2C19 (Homo sapiens, UniProt P33261); assay: Cytochrome panel assay with activity outcomes. Panel member name: p450-cyp2c19 Compounds with AC50 equal or less than 10 uM are considered active; assay type: functional
Sequence of Cytochrome P450 2C19 (P33261 whole entry): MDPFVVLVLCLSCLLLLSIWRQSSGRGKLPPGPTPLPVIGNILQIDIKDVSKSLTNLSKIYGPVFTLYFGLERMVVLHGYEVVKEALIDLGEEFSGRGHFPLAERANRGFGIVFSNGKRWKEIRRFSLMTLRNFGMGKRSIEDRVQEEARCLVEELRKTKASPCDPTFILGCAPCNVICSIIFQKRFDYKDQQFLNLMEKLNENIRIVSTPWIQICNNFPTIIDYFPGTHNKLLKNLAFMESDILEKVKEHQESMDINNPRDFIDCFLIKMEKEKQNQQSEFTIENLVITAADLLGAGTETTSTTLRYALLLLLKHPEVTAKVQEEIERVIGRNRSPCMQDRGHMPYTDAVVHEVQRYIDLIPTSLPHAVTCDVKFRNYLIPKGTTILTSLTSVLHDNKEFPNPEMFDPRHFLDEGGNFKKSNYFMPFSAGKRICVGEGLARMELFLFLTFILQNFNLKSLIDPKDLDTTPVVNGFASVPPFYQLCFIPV

[7] = target: Cytochrome P450 2C9 (Homo sapiens, UniProt P11712)
Sequence of Cytochrome P450 2C9 (P11712 whole entry): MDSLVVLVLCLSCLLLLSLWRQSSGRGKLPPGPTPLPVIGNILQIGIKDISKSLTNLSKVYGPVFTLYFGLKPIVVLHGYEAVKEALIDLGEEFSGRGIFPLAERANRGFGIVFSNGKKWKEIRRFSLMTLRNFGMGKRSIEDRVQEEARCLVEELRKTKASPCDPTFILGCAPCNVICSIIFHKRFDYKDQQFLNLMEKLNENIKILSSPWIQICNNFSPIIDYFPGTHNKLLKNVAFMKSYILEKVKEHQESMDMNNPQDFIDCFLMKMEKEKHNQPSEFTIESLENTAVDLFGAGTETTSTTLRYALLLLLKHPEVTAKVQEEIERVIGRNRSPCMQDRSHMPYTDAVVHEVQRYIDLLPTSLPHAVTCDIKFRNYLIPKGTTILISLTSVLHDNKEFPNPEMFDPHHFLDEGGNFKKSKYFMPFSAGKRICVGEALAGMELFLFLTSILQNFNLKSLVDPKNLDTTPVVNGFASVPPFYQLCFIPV

[8] = target: T1, Rac GTPase-activating protein 1 (Homo sapiens, UniProt Q9H0H5); assay: MgcRacGAP GTPase-activating activity inhibitors, confirmation, biochemical, ADP Hunter fluorescence, primary and confirmatory (AID 624330); assay type: functional
T1 sequence (Q9H0H5 whole entry): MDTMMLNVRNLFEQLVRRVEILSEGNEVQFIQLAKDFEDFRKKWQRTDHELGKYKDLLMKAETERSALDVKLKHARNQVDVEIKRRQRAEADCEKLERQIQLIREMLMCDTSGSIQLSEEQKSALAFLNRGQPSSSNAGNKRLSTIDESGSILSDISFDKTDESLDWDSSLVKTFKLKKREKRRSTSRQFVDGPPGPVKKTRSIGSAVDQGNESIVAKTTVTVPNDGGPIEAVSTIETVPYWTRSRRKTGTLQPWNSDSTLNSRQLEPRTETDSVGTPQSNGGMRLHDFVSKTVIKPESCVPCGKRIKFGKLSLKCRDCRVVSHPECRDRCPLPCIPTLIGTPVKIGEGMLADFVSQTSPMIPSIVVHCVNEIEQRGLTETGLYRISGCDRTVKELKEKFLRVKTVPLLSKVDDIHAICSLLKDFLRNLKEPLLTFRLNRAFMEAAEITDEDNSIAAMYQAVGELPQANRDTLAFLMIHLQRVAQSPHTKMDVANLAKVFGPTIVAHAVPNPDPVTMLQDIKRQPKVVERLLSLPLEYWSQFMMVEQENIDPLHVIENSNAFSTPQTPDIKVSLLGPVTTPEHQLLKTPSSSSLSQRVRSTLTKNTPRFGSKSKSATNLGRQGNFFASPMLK

[9] = Luminescence Cell-Based Dose Retest to Confirm Inhibitors of Cancer Stem Cells. [Related pubchem assays (depositor defined):AID2717, AID2721]; assay type: functional; conditions: Homo sapiens
[10] = cells; assay type: functional
[11] = target: T2, Corticotropin-releasing factor receptor 2/Corticotropin-releasing factor-binding protein (Homo sapiens, UniProt P24387+Q13324); assay: activators of CRF receptor 2 with binding protein – uHTS hits, confirmation (AID 602473); assay type: functional; conditions: read-out: EC50_Mean
T2 sequence (Q13324 whole entry): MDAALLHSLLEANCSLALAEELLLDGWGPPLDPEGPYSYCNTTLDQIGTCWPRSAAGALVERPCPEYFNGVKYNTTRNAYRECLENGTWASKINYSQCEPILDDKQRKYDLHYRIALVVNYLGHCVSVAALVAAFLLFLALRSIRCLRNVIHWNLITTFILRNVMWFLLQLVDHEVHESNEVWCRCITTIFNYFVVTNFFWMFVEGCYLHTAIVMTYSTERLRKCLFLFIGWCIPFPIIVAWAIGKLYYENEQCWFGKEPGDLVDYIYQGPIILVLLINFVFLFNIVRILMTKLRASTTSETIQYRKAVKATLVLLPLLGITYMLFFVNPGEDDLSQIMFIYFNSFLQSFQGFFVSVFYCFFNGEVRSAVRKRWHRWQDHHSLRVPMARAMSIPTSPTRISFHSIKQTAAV
T2 sequence (P24387 whole entry): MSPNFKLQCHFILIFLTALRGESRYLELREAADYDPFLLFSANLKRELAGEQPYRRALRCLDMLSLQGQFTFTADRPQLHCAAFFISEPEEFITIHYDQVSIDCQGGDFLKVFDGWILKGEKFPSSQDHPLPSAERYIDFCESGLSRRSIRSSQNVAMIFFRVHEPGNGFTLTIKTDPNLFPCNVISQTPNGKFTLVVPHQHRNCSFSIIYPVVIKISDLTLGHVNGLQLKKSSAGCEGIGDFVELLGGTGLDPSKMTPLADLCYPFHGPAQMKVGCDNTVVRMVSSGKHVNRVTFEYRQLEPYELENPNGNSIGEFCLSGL

[12] = growth suppression of PTEN-null colon cells, dose response, cell-based, HCT116 PTEN knockout (AID 1047); assay type: functional;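 further: HCT116 colon tumor cells with PTEN knocked out; cells exposed to compound for 60 hours before readout; potency for loss of cell viability measured by luminescence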
[13] = growth suppression of beta-catenin-knockout colon cells, dose response, cell-based, HCT116, human colon tumor (AID 1045); assay type: functional;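 further: HCT116 colon tumor cells with beta catenin knocked out; cells exposed to compound for 60 hours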
[14] = inhibitors of intracellular T. cruzi replication, confirmation, NIH3T3 host cells, beta-gal luminescence (AID 2044); assay type: functional, cell-based;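 further: intracellular parasites grown in NIH/3T3 mouse fibroblasts as host cells; luminescent beta-galactosidase reporter signal from transgenic T. cruzi replicating inside host cells; inhibitors lower the luminescence signal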
[15] = cytotoxicity toward NIH3T3 fibroblasts, dose response, counter-screen, cell-based, ATP luminescence, mouse fibroblasts (AID 2010); assay type: functional;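 further: cells exposed to compound for about 90 hours before reading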
[16] = tested on: Streptococcus sp. 'group A'; assay: growth inhibition of control SK(-) GAS strain, dose response, counter-screen for streptokinase expression inhibitor project, luminescence, kanamycin, BacTiterGlo, confirmation (AID 1900); assay type: functional, organism-based
[17] = tested on: Streptococcus; assay: Group A Streptococcus viability loss, dose response, counter-screen for streptokinase expression inhibitor project, luminescence, BacTiterGlo (AID 1915); assay type: functional, organism-based;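 further: potency for reduction of bacterial viability or growth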

COc1cc(OC)c(OC)cc1CNc1cc(C)ccc1OC
AC50 [1]: 18.1 µM (active) | AC50 [2]: 47.2 µM (active) | AC50 [3]: 7.92 µM (active)

C/C=C1\C[N@@+]2(C)CC[C@@]34C(=C(C=O)[C@H]1C[C@H]32)Nc1ccccc14
AC50 [4]: 6.31 µM (inconclusive) | AC50 [5]: 0.00126 µM (inconclusive)

CC(C)c1nccn1Cc1ccc(Cl)cc1Cl
AC50 ([6]; read-out: AC50): 2 µM (inconclusive) | AC50 [4]: 3.16 µM (inconclusive)

CCNc1ncc2nc(-c3cn(C)c4ccccc34)c(=O)n(C)c2n1
AC50 [4]: 12.6 µM (inconclusive) | AC50 [5]: 10 µM (inconclusive) | AC50 [7]: 39.8 µM (inconclusive)

O=C(c1ccco1)N1CCC[C@@]2(CCN(c3ccncc3)C2)C1
AC50 [4]: 25.1 µM (inconclusive) | AC50 [7]: 15.8 µM (inconclusive)

O=C(Cn1c(C(=O)NCc2ccco2)cc2sccc21)c1ccccc1
IC50 [8]: 139 µM (active)

CC(C)=CCc1c(O)ccc(C(=O)Cc2ccccc2)c1O
AC50 [9]: 3.82 µM (active)

COc1ccccc1C1=NOC(COC(=O)c2ccc([N+](=O)[O-])cc2)C1 (stereo unspecified)
IC50 [10]: 3.93 µM (active)

COc1ccc(-c2ncc3ccccn23)cc1OC
IC50 [8]: 126 µM (active)

O=C(OCC(=O)C12CC3CC(CC(C3)C1)C2)c1ccccn1
IC50 [10]: 37.8 µM (active)

COC(=O)[C@@H](NC(=O)c1cc(COc2cncc(Cl)c2)on1)c1ccccc1
IC50 [10]: 5.52 µM (active)

O=S(=O)(NCC1(N2CCOCC2)CCCCC1)c1ccc(Cl)cc1C(F)(F)F
EC50 [11]: 5.65 µM (active)

Cc1cccc(Oc2ncc(-c3ccc(Cl)cc3)cn2)c1C
AC50 [4]: 17.8 µM (inconclusive) | AC50 [5]: 25.1 µM (inconclusive)

CN(c1cccc(Cl)c1)S(=O)(=O)c1cccc(C(=O)NCc2ccncc2)c1
AC50 [1]: < 0.26 µM (active) | AC50 [2]: 61.5 µM (active) | AC50 [3]: 0.664 µM (active)

Cc1cccc(-c2nc(Nc3cccc(O)c3)c3ccccc3n2)c1
AC50 [9]: 3.88 µM (active)

Cc1ccccc1CN(C)CCc1ccccn1
IC50 [8]: 123 µM (active)

Cc1nn(Cc2c(F)c(F)c(F)c(F)c2F)c(C)c1NC(=O)c1c(-c2ccccc2)nn(-c2ccccc2)c1C
EC50 [12]: 21.9 µM (active) | EC50 [13]: 25.8 µM (active)

CCOC(=O)c1sc(NC(=O)Nc2ccccc2Cl)cc1C
EC50 [14]: 2.26 µM (active) | EC50 [15]: > 30 µM (not active) | AC50 [9]: 5.37 µM (active)

COc1ccccc1NCC(O)Cn1c2ccccc2c2ccccc21 (stereo unspecified)
EC50 [12]: 34.3 µM (active) | EC50 [13]: 43.6 µM (active)

Cc1cc2c(nc1C)CCCN2C[C@H](C)O/N=C1/[C@H]2O[C@@H]2[C@@H](O)[C@H]2[C@H]1CCn1c(=O)n(-c3ccccc3)c(=O)n12
AC50 [4]: 2.51 µM (inconclusive) | AC50 [5]: 6.31 µM (inconclusive)

Cc1ccc(S(=O)(=O)N2CCN(c3ncnc4sccc34)CC2)cc1C
AC50 [1]: 3.53 µM (active) | AC50 [2]: 5.96 µM (active) | AC50 [3]: 6.17 µM (active)

O=C(NCc1ccc(Cl)cc1)c1cccc(NC(=O)c2ccccc2)c1
AC50 [9]: 5.29 µM (active)

COCC(C)NCc1cccc(C)c1 (stereo unspecified)
AC50 [4]: 14.1 µM (inconclusive)

Cc1ccc(N(C(C)C(=O)Nc2cc(Cl)ccc2Oc2ccccc2)S(C)(=O)=O)cc1 (stereo unspecified)
AC50 [4]: 15.8 µM (inconclusive)

N#Cc1ccc(C(c2nnnn2C2CCCC2)N2CCC(Cc3ccccc3)CC2)cc1 (stereo unspecified)
AC50 [4]: 10 µM (inconclusive) | AC50 [7]: 11.2 µM (inconclusive)

CCc1cc2c(nc1CC)CCN(CC/C(C)=N/OC[C@@H](O)[C@@H]1O[C@@H]3OC(C)(C)O[C@@H]3[C@H]1O)C2
AC50 ([6]; read-out: AC50): 0.0316 µM (inconclusive) | AC50 [4]: 6.31 µM (inconclusive) | AC50 [5]: 6.31 µM (inconclusive)

CC(C)COc1ccc(C2(C#N)CC[N+](C)(C)CC2)cc1.[Br-]
AC50 [6]: inconclusive | AC50 [4]: 11.2 µM (inconclusive) | AC50 [5]: 39.8 µM (inconclusive)

CCN(CC)S(=O)(=O)c1ccc(C(=O)OCn2nnc3ccccc3c2=O)cc1
IC50 [10]: 17.9 µM (active)

CCOC(=O)c1sc(NC(=S)NC(=O)c2cccc(OC)c2)nc1C
EC50 [11]: 15 µM (active)

Cc1ccc2oc(=O)c(/C=C(\O)c3ccccc3)nc2c1
EC50 [11]: 12.1 µM (active) | IC50 [8]: 48.6 µM (active)

COC(=O)c1[nH]c2ccc(C)cc2c1NC(=O)NC1CCCCC1
EC50 [12]: 20.2 µM (active) | EC50 [13]: 26.5 µM (active)

Cc1cccc(CN(C)CCc2ccccn2)c1
EC50 [14]: 0.517 µM (active) | EC50 [15]: > 30 µM (not active) | AC50 [4]: 2.51 µM (inconclusive) | AC50 [7]: 0.355 µM (inconclusive)

c1ncc(-c2ccoc2)c(NC2CC2)n1
AC50 ([6]; read-out: AC50): 39.8 µM (inconclusive) | AC50 [4]: 25.1 µM (inconclusive)

O=C(OCC12CC3CC(CC(C3)C1)C2)c1ccc(NCc2cc(O)ccc2O)cc1
AC50 [1]: 3.25 µM (active) | AC50 [2]: 66.7 µM (active) | AC50 [3]: 7.26 µM (active)

Cc1c(C2(O)CCCCC2)[nH]c2cc(C(F)(F)F)ccc12
AC50 [9]: 7.81 µM (active)

CCOCCN1CCC(OC(C)=O)C(C)C1 (stereo unspecified)
AC50 ([6]; read-out: AC50): 3.16 µM (inconclusive) | AC50 [4]: 12.6 µM (inconclusive)

Clc1ccc(NN(Cc2ccncc2)c2ccc(Cl)cc2)cc1
EC50 [11]: > 53 µM (inactive)

COCCNC(=S)N/N=C/c1ccc(-c2ccc([N+](=O)[O-])cc2)o1
EC50 [11]: 5.95 µM (active)

CCOc1cc(/C=N/NC(=O)CCn2nc(C)cc2C)ccc1O
IC50 [8]: 61.5 µM (active)

O/N=C/c1cc(Cl)ccc1OCc1ccccc1Cl
AC50 [9]: 4.45 µM (active)

CC(C)=CCc1c(O)c(CC=C(C)C)c2occ(-c3ccc(O)cc3)c(=O)c2c1O
EC50 [16]: 2.66 µM (active) | EC50 [17]: 3.28 µM (active) | AC50 [9]: 2.62 µM (active)

COc1ccccc1N1CCN(CCCCN2C(=O)c3ccccc3C2=O)CC1 [NAN-190]
AC50 [4]: 12.6 µM (inconclusive) and 10 µM (inconclusive) | AC50 [5]: 31.6 µM (inconclusive) and 1.58 µM (inconclusive)
